According to US20250340941A1, “ASSAY AND METHODS FOR DRUG DISCOVERY” (BIOVIE INC., priority 2023, published 2025):

What was measured:
[1] = tested on: TNFR1 phosphorylation in THP-1 human monocytes; test: TNFa-stimulated TNFR1 ERK-dependent phosphorylation, Western blot densitometry; assay type: cell-based; conditions: THP-1, TNFa 50 ng/mL
Method: THP-1 monocytes were treated with 100 nM NE3107, 1 uM IKK-16 (IKK inhibitor), 1 uM Tpl2 Kinase inhibitor (TPL2i) or Vehicle (0.1% DMSO) and stimulated with TNFa 50 ng/mL. Cell lysates were collected at 0, 2, 5, 10, 15, and 30 minutes. The results are given as fold change with respect to the control following Western blotting and quantification of band intensities by densitometry scanning.
THP-1 human monocytes were grown in complete growth medium (ATCC-formulated RPMI-1640 Medium, Catalog No. 30-2001), 2-mercaptoethanol to a final concentration of 0.05 mM and fetal bovine serum to final concentration of 10%. THP-1 human monocytes were then seeded into 10 mL complete growth medium at 0.4×10^6/mL in a T25 flask and were grown to 0.8×10^6/mL in about 1 to 2 days. The cells were then starved in 0.5% FBS RPMI for 16 h. The THP-1 monocytes were then treated with 100 nM 17α-ethynylandrost-5-ene-3ϕ3,7ϕ3,17ϕ3-triol (NE3107), 1 μM IKK-16 (IKK inhibitor), 1 μM Tpl2 Kinase inhibitor (TPL2i) or 0.1% DMSO (vehicle). Cells were stimulated with stimulated with 50 ng/mL TNFa and cell lysates were collected at 0, 2, 5, 10, 15, and 30 minutes after TNFa stimulation. Total cell lysates were subjected to Western blotting as described in Lu et al., Mol. Endocrinol. 22 (2008), 760-771. Relative band intensities were quantified by densitometry scanning. The results are given as fold change with respect to untreated cells in Table 2.

[2] = tested on: Monocytes; test: Blood monocyte frequency, 3-month open-label phase 2 study; assay type: in vivo, human
Method: (§1) Result: The subject's SkinBloodAge clock closely matched their chronological age at baseline (mean 71.5 vs 70.8 years). After 3 months of NE3107 (20 mg BID), the SkinBloodAge decreased by a mean of 3.3 years (Table). […] Leptin is reportedly lower in AD, and DNAmLeptin is reported to be positively correlated with metabolic parameters waist/hip ratio, BMI, CRP, insulin, glucose and triglycerides (Lu 2022 Aging 14:9884). […] DNAmPack Years is reported to be negatively correlated with time to mortality in both smokers and nonsmokers, and positively correlated with waist/hip ratio, CRP and triglycerides. Monocyte DNAm was correlated with monocyte frequency at baseline, and although it is reported to increases with chronological age, it decreased (−29%) in 77% of subjects after 3 months treatment. […]

[3] = Phase 3 trial (NM101, NCT04669028): metabolic changes, blinded assessment; assay type: in vivo, human
Description: In this example, the clinical outcomes from a Phase 3, randomized, placebo-controlled trial of NE3107 (17α-ethynylandrost-5-ene-3ϕ3,7ϕ3,17ϕ3-triol) in subjects with mild to moderate probable Alzheimer's disease.
Recently, the roles of inflammation and insulin resistance in neurodegeneration have become better appreciated. […] We describe the rationale and design of NM101, the first randomized, multicenter Phase III clinical study to examine the safety and efficacy of 30-week treatment with NE3107 versus placebo in elderly adults with mild-to-moderate Alzheimer's disease. Patients (316) will be randomized in a 1:1 ratio. The co-primary end points measure cognitive function and functional and behavioral characteristics (Clinical Dementia Rating Scale Sum of Boxes, CDR-SB) and cognitive function (ADAS Cog12). Trial registration number: NCT04669028 (Clinicaltrials.gov).
Subjects metabolic and correlation changes were analyzed. Many of the genes associated with LOAD (late onset Alzheimer's disease) are related to cholesterol metabolism, which is decreased in AD neuron membranes. Insulin and glycemic controls are known to be involved in neurodegeneration. […] Increased mean amplitude of glycemic excursion (MAGE from CGM) increased risk of Alzheimer's disease progression. Leptin is an anti-inflammatory, neuroprotective and is decreased in AD. […] The results are described in Tables 4 and 5.

[4] = Phase 3 trial: neuropsychiatric inventory; assay type: in vivo, human; conditions: Phase 3, blinded analysis (NE3107 and placebo not separated)
Method: Subjects were analyzed for neuropsychiatric inventory. […] An improvement in appetite was also correlated with decreased Cog12, CDR SB and ADCOMS, with increased Alzheimer's disease. A decrease in anxiety was correlated with an increase ADL and decreased CGIC. Sleep improvement was correlated with a decrease in CGIC and decreased in TNFa. The results are described in Table 8 and FIGS. 6A-6B.

[5] = Phase 3 trial: imaging sub-study vMRI; assay type: in vivo, human; conditions: Phase 3 imaging sub-study, 23 subjects, blinded analysis; result in words
Method: Subjects were analyzed using imaging sub-studies vMRI on 23 subjects. It was observed that the volume was increased in the hippocampus and amygdala. In addition, it was observed that a decreased CGIC was correlated with decreased hippocampi volume and increased MCP-1 was correlated with increased whole cortex. The results are described in FIGS. 4A-4B and Table 6.

[6] = Phase 3 trial: adverse events; assay type: in vivo, human; conditions: blinded (IP or placebo not known)
Description: Of the 439 subjects enrolled in the study, 156 experienced 1 or more AEs (35.5%). There were only 43 (9.8%) related AEs with the majority 42 […] categorized as non-serious AEs by the principal investigator. The study also had very low rate of serious AEs reported. There were 12 (2.7%) reported for the duration of the study. […] As this is a blinded analysis it is not known if the subjects was on IP or placebo.

[7] = tested on: Horvath Clock DNA methylation (DNAm); test: Horvath Clock DNA methylation (DNAm) epigenetic analysis of whole blood, 3-month open-label phase 2 study (NCT05007820); assay type: in vivo, human
Description: NE3107 is an oral small molecule, blood-brain permeable anti-inflammatory insulin sensitizer that binds ERK, inhibits NFKB and TNF signaling, and is in clinical studies for Probable AD (NCT04669028) and Parkinson's disease (NCT05083260). Safety, clinical, biomarker and neuroimaging results from a 3-month open-label phase 2 study of NE3107 treatment of MCI and probable AD (NCT05007820) were reported at CTAD (2022 J. Prev. Alzheimers Dis 9 S86, S140 and S27). In this example, the inventors determined the results of epigenetic clock studies from NCT05007820.
Methods: Subjects with clinical dementia rating (CDR) 0.5-1 were consented, and whole blood was drawn, frozen and shipped for Horvath Clock DNA methylation (DNAm) epigenetic analysis (Horvath 2018 Aging 10:1758) at baseline and 3 months.
as §1

[8] = Phase 3 trial: FDG-PET imaging; assay type: in vivo, human; conditions: Phase 3, blinded analysis; subjects with a baseline whole cortex suvr <1.29, n/N
Method: Subjects were analyzed using a fluorodeoxyglucose (FDG)-positron emission tomography (PET) imaging scans. FDG-PET standardized uptake value ratios (“suvr”) were increased in 14/24 subjects with a baseline whole cortex suvr <1.29. […] Cholesterol increases trended with increased Cingulate suvr. The results are described in Table 7 and FIG. 5.

[9] = After 3 months of NE3107 (20 mg BID), result in words
[10] = NE3107 20 mg BID, 3 months vs baseline
[11] = NE3107 20 mg BID, 3 months vs baseline, mean
[12] = NE3107 20 mg BID, 3 months, mean
[13] = Phase 3, blinded analysis (NE3107 and placebo not separated)
[14] = Phase 3, blinded analysis, result in words
[15] = After 3 months of NE3107 (20 mg BID), size of decrease
[16] = Blood Cell Frequency, 3 months vs baseline, mean
[17] = Blood Cell Frequency, NE3107 20 mg BID, 3 months, mean
[18] = NE3107 20 mg BID, 3 months, n/N subjects

O=C(c1ccc(Nc2nccc(-c3cc4ccccc4s3)n2)cc1)N1CCC(N2CCCC2)CC1 [IKKi, IKK-16, reference compound]
Fold vs DMSO control P-TNFR1/Actin in Gel2 ([1]; 1 μM, 0 min): 2.09 fold | Fold vs DMSO control P-TNFR1/TNFR1 in Gel2 ([1]; 1 μM, 0 min): 2.92 fold | Fold vs DMSO control P-TNFR1/Actin in Gel2 ([1]; 1 μM, 15 min): 0.92 fold | Fold vs DMSO control P-TNFR1/TNFR1 in Gel2 ([1]; 1 μM, 15 min): 0.59 fold | Fold vs DMSO control P-TNFR1/Actin in Gel2 ([1]; 1 μM, 30 min): 0.49 fold | Fold vs DMSO control P-TNFR1/TNFR1 in Gel2 ([1]; 1 μM, 30 min): 0.30 fold

C#C[C@]1(O)CC[C@H]2[C@@H]3[C@@H](O)C=C4C[C@@H](O)CC[C@]4(C)[C@H]3CC[C@@]21C [NE3107, 17α-ethynylandrost-5-ene-3ϕ3,7ϕ3,17ϕ3-triol]
change in monocyte frequency [2, 9]: no significant change | Monocytes, Change (%) [2, 10]: (1.5%) | Monocytes, Change [2, 11]: −0.001 Freq | Monocytes, 3 Months [2, 12]: 0.085 Freq | HOMA2-% B, Change from Baseline [3, 13]: +13.5%, * | HOMA2-% S, Change from Baseline [3, 13]: −21.2%, * | Insulin, Change from Baseline [3, 13]: +1.9 μIU/mL | Leptin, V10 median [3, 13]: 29.2 ng/mL | MAGE, Change from Baseline ([3]; Phase 3, blinded analysis (NE3107 and placebo not separated), from CGM): -0.57 mg/dL | Leptin DNAm [3, 14]: observed to increase | cases of hypoglycemia [3, 14]: no cases of hypoglycemia | Cholesterol, Change from Baseline ([3]; Phase 3, mild to moderate probable AD, blinded analysis (NE3107 and placebo subjects not separated)): +3.0 mg/dL | neuropsychiatric inventory: overall improvement in appetite [4]: −1.0 | neuropsychiatric inventory: overall improvement in sleep [4]: −1.0 | vMRI volume in the hippocampus and amygdala [5]: increased | related AEs ([6]; Phase 3, 439 subjects enrolled): 9.8% | related AEs categorized as non-serious ([6]; Phase 3, 439 subjects enrolled): 0.6% | serious AEs reported ([6]; Phase 3, 439 subjects enrolled): 2.7% | subjects discontinued due to a reported AE ([6]; Phase 3, 439 subjects enrolled): 1.8% | subjects who experienced 1 or more AEs ([6]; Phase 3, 439 subjects enrolled): 35.5% | serious AEs that resulted in death ([6]; Phase 3, count): 1 | Fold vs DMSO control P-TNFR1/Actin in Gel2 ([1]; 100 nM, 0 min): 0.32 fold | Fold vs DMSO control P-TNFR1/TNFR1 in Gel2 ([1]; 100 nM, 0 min): 0.27 fold | Fold vs DMSO control P-TNFR1/Actin in Gel2 ([1]; 100 nM, 15 min): 0.79 fold | Fold vs DMSO control P-TNFR1/TNFR1 in Gel2 ([1]; 100 nM, 15 min): 0.57 fold | Fold vs DMSO control P-TNFR1/Actin in Gel2 ([1]; 100 nM, 30 min): 0.23 fold | Fold vs DMSO control P-TNFR1/TNFR1 in Gel2 ([1]; 100 nM, 30 min): 0.17 fold | DNAmCD4Tcell, Change (%) ([7]; 3 months vs baseline): (18%) | DNAmCD8Tcell, Change (%) ([7]; 3 months vs baseline): (12%) | DNAmGranulocyte, Change (%) ([7]; 3 months vs baseline): (2.2%) | DNAmNKcell, Change (%) ([7]; 3 months vs baseline): (0.5%) | changes in DNAmT, DNAmNK or DNAmGran [7, 9]: no significant changes | DNAmPackYears decreased by [7, 15]: 39% | SkinBloodAge decreased by a mean of [7, 15]: 3.3 years | DNAmCD4Tcell, Change [7, 16]: −0.033 | DNAmCD8Tcell, Change [7, 16]: −0.002 | DNAmGranulocyte, Change [7, 16]: −0.015 | DNAmNKcell, Change [7, 16]: −0.0003 | DNAmCD4Tcell, 3 Months [7, 17]: 0.152 | DNAmCD8Tcell, 3 Months [7, 17]: 0.013 | DNAmGranulocyte, 3 Months [7, 17]: 0.653 | DNAmNKcell, 3 Months [7, 17]: 0.063 | DNAmPackYears, Change (%) [7, 10]: (39%) | DNAmSkinBlood, Change (%) [7, 10]: (−4.6%) | DNAmMonocytes, Change [7, 11]: −0.022 Freq | DNAmPackYears, Change [7, 11]: −9.4 | DNAmSkinBlood, Change [7, 11]: −3.3 years | DNAmSkinBlood, 3 Months ([7]; NE3107 20 mg BID, 3 months, MCI/probable AD subjects (CDR 0.5-1), whole blood, mean): 67.5 years | DNAmMonocytes, 3 Months [7, 12]: 0.054 Freq | DNAmPackYears, 3 Months [7, 12]: 14.6 | DNAmLeptin, Frequency (subjects with decrease) [7, 18]: 22/22 | DNAmMonocytes, Frequency (subjects with decrease) [7, 18]: 17/22 | DNAmPackYears, Frequency (subjects with decrease) [7, 18]: 21/22 | DNAmSkinBlood, Frequency (subjects with decrease) [7, 18]: 19/22 | subjects with increased FDG-PET standardized uptake value ratios (suvr) [8]: 14/24
